Source: patent US20050273177A1, “Prosthetic device having drug delivery properties” (priority 2004, published 2005)

Test: In vitro PGE-1 elution from coated stents overlaid with a permeable polymer membrane, measured by HPLC
Assay type: physicochemical
Method: Various materials presently used in pharmaceutical preparations as solubilizers, crystallization inhibitors, suspension stabilizers and lyophilization agents were mixed with PGE-1. The mixtures were dissolved in solvent systems composed of ethanol, chloroform, water, or mixtures thereof. Prior to coating, stents (provided by different stent manufacturers) were cleaned by sonification in absolute ethanol for thirty minutes, and dried. Each stent was weighed before and after coating. The amount of PGE-1 in the coating solution was determined by high performance liquid chromatography analysis (HPLC), and used to calculate the percent by weight of PGE-1 on the stent. To confirm this value, the coating was dissolved (from the stent) and the PGE-1 content analyzed by HPLC.
Drug coatings on the stents were assessed using scanning electron microscopy (SEM) for: (a) smoothness, (b) uniformity, and (c) lack of cracking. Stents that met these criteria, were overlaid with a thin membrane of non-erodable polymer matrix to retard the release of PGE-1 from the surface of the stents. Vapor-deposition of the polymer matrix was carried out according to the manufacturer's protocol, and the thickness of the polymer matrix membrane was measured using a Tencor device.
Using the most desirable coating combination, twenty coronary stents were coated with either 100 micrograms or 250 micrograms of PGE-1, and overlaid with the polymer matrix membrane. Five stents from each drug concentration were expanded by insertion of a balloon catheter. The stents were examined by SEM after deposition of the pharmaceutical layer 14, after applying the membrane 16, and after expansion of the stents 12.
PGE-1 elution profiles were determined for each group of stents 12. In vitro PGE-1 release curves were performed using HPLC. Drug elution profiles were measured in phosphate buffered saline (pH 7.4) using a LabQuake 360° degree rotator, at ambient temperature. At each time point, the stents were removed from the one milliliter sample (typically, after 24 hours) and transferred to the next aliquot. HPLC analysis of the eluent was performed using a Waters Alliance system equipped with a 996 photodiode array detector.
HPLC Program Conditions/Settings:
Column: 4.6 mm×150 mm Reverse Phase C18
Photo-diode array UV detector set to scan 190 to 300 nm
Solvent system: 35% Acetonitrile/65% water with 0.1% acetic acid
In Example 2 a second set of twenty stents were coated as described above, except the polymer membrane overcoat 16 was twice the thickness as the former.

CCCCC[C@H](O)/C=C/[C@H]1[C@H](O)CC(=O)[C@@H]1CCCCCCC(=O)O [PGE-1, prostaglandin E-1]
Period of initial burst of PGE-1 release (FIGS. 2A and 2B, thinner membrane, 100 or 250 μg PGE-1): 48-96 hours
Duration of slow, sustained release of the drug (FIGS. 2A and 2B, thinner membrane, after the initial burst): approximately sixty
Release profile with thicker polymer overcoat compared with thinner membrane (FIGS. 3A and 3B, membrane twice the thickness): initial release of PGE-1 is delayed and the overall amount of PGE-1 eluted from the stents 12 over time is reduced
PGE-1 Released (%) (Study 1, 73 days, expanded stent coated with 100 μg PGE-1, PBS pH 7.4, ambient temperature): 82%
PGE-1 Released (%) (Study 1, 73 days, expanded stent coated with 250 μg PGE-1, PBS pH 7.4, ambient temperature): 83%
PGE-1 Released (%) (Study 1, 73 days, unexpanded stent coated with 100 μg PGE-1, PBS pH 7.4, ambient temperature): 37%
PGE-1 Released (%) (Study 1, 73 days, unexpanded stent coated with 250 μg PGE-1, PBS pH 7.4, ambient temperature): 46%
PGE-1 Released (%) (Study 2 (membrane twice the thickness), 35 days, expanded stent coated with 100 μg PGE-1, PBS pH 7.4): 71%
PGE-1 Released (%) (Study 2 (membrane twice the thickness), 35 days, expanded stent coated with 250 μg PGE-1, PBS pH 7.4): 26%
PGE-1 Released (%) (Study 2 (membrane twice the thickness), 35 days, unexpanded stent coated with 100 μg PGE-1, PBS pH 7.4): 19%
PGE-1 Released (%) (Study 2 (membrane twice the thickness), 35 days, unexpanded stent coated with 250 μg PGE-1, PBS pH 7.4): 26%
